{"source": "PubChem BioAssay (NCI)", "note": "Several values for one entry are separate records, joined by “and”; a condition that tells them apart may be missing. Equal values may be shown once.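 Assay format: 96-well plates, 48-hour exposure. The concentration for 50% growth inhibition is given as GI50. TGI denotes the concentration required for complete inhibition of growth.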", "data": [{"test_system": "K-562 leukemia", "test": "growth of human tumour cells (NCI), 48 h", "units": {"TGI": "µM", "GI50": "µM"}, "values": [{"smiles": "COC(=N)c1csc(C2OC(CO)C(O)C2O)n1", "note": "(configuration not stated)", "TGI": "> 100"}, {"smiles": "O=C(CC(=O)Nc1ccccc1)NNC(Sc1ccccc1)c1cc(N=Nc2ccc(Br)cc2)ccc1O", "note": "(configuration not stated)", "TGI": 6.27}, {"smiles": "Cc1cc(C(=O)CSC(=S)SC(C)(C)C)ccc1Cl", "TGI": "> 100"}, {"smiles": "C=CC12CCN(CC1)C(C(O)c1ccnc3ccc(OC)cc13)C2", "note": "(configuration not stated)", "GI50": "> 100", "TGI": "> 100"}, {"smiles": "Nc1c(S(=O)(=O)c2ccc(Cl)cc2)c2nc3ccccc3nc2n2ccnc12", "TGI": "> 100"}, {"smiles": "O=C(Nc1nc(-c2c[nH]c3ccccc23)cs1)c1n[nH]c(=O)c2ccccc12", "GI50": 1.27, "TGI": "> 100"}, {"smiles": "CN(C)CCN1CCC(Cc2ccccc2)CC1", "GI50": 15.4, "TGI": "> 80"}, {"smiles": "COc1cc2c3c(n(C)c(=O)c2cc1OC)-c1cc2c(cc1C3=O)OCO2", "TGI": "> 92.2"}, {"smiles": "COc1ccc(/C=C\\c2cc(OC)c(OC)c(OC)c2)cc1OCC(=O)O", "TGI": "> 100"}, {"smiles": "CO[C@@H]1CC[C@]2(C)OC[C@H](C)[C@@H]3C[C@@H](C)[C@@H](OC(C)=O)[C@@H]4[C@H]3[C@@H]2O[C@H]4C[C@@]1(C)O", "GI50": "> 100", "TGI": "> 100"}, {"smiles": "Oc1oc(C(=C2N=c3ccccc3=N2)c2ccc(Cl)cc2)c(O)c1-c1ccc(Cl)cc1", "TGI": "> 100"}, {"smiles": "O=C(Nc1ncc(Cc2cccc(C(F)(F)F)c2)s1)c1ccc2c(c1)OCCO2", "GI50": 0.159, "TGI": "> 100"}]}, {"test_system": "U251 CNS", "test": "growth of human tumour cells (NCI), 48 h", "units": {"GI50": "µM"}, "values": [{"smiles": "COc1cc2c(cc1OCCCN1CCN(CCCOc3cc4c(cc3OC)C(=O)N3CC(F)(F)C[C@H]3C=N4)CC1)N=C[C@@H]1CC(F)(F)CN1C2=O", "GI50": 3.36, "TGI": "14.3 µM"}, {"smiles": "COC(=O)C1=CN(CC2=CC(=O)C(C)=CC2=O)C=C(C(=O)OC)C1c1ccccc1OC", "GI50": 20, "TGI": "46.7 µM"}, {"smiles": "O/N=C1\\CCCCC1C(NO)c1ccccc1", "note": "(configuration not stated)", "TGI": "> 100 µM"}, {"smiles": "COC(=O)/C=C/c1cc(OC(C)=O)c2c(c1)C(C(=O)OC)C(c1ccc(OC(C)=O)c(OC(C)=O)c1)O2", "note": "(configuration not stated)", "GI50": 0.11, "TGI": "> 50.9 µM"}, {"smiles": "COc1cc(OC)c(OC)cc1/C=N/NC(=O)N/N=C/c1cc(OC)c(OC)cc1OC", "TGI": "> 100 µM"}, {"smiles": "O=C(O)c1ccc(CNCc2ccccc2)cc1", "TGI": "> 100 µM"}, {"smiles": "C=C(C)C(C1C=C(CCC(C=O)=C(C)C)C(=O)O1)C1(OC)C=C(C)C(=O)O1", "note": "(configuration not stated)", "GI50": 74.7, "TGI": "> 100 µM"}, {"smiles": "CCOC(=O)Nc1c(C)nc2ccccn12", "GI50": "> 100", "TGI": "> 100 µM"}, {"smiles": "Cc1cc2c(cc1C)[n+](=O)cc(C(=O)C/C(=N/NC(=S)NN)C(=O)Nc1cccc(C(F)(F)F)c1)n2[O-]", "TGI": "> 100 µM"}, {"smiles": "COCOCCC#CCO", "TGI": "> 100 µM"}, {"smiles": "O=[N+]([O-])c1ccccc1N=Nc1c(O)[nH]c2c(Cl)cc(Cl)cc12", "TGI": "27.7 µM"}, {"smiles": "NC(=S)N/N=C/c1ncccc1O", "GI50": 3.35, "TGI": "> 89.9 µM and 557 µM"}, {"smiles": "COC(=N)c1csc(C2OC(CO)C(O)C2O)n1", "note": "(configuration not stated)", "TGI": "> 100 µM"}, {"smiles": "O=C(CC(=O)Nc1ccccc1)NNC(Sc1ccccc1)c1cc(N=Nc2ccc(Br)cc2)ccc1O", "note": "(configuration not stated)", "TGI": "> 10 µM"}, {"smiles": "Cc1cc(C(=O)CSC(=S)SC(C)(C)C)ccc1Cl", "TGI": "28.3 µM"}, {"smiles": "C=CC12CCN(CC1)C(C(O)c1ccnc3ccc(OC)cc13)C2", "note": "(configuration not stated)", "GI50": "> 100", "TGI": "> 100 µM"}, {"smiles": "Nc1c(S(=O)(=O)c2ccc(Cl)cc2)c2nc3ccccc3nc2n2ccnc12", "TGI": "> 100 µM"}, {"smiles": "O=C(Nc1nc(-c2c[nH]c3ccccc23)cs1)c1n[nH]c(=O)c2ccccc12", "GI50": 0.663, "TGI": "24 µM"}, {"smiles": "CN(C)CCN1CCC(Cc2ccccc2)CC1", "GI50": "> 80", "TGI": "> 80 µM"}, {"smiles": "COc1cc2c3c(n(C)c(=O)c2cc1OC)-c1cc2c(cc1C3=O)OCO2", "TGI": "> 100 µM"}, {"smiles": "COc1ccc(/C=C\\c2cc(OC)c(OC)c(OC)c2)cc1OCC(=O)O", "TGI": "39.6 µM"}, {"smiles": "CO[C@@H]1CC[C@]2(C)OC[C@H](C)[C@@H]3C[C@@H](C)[C@@H](OC(C)=O)[C@@H]4[C@H]3[C@@H]2O[C@H]4C[C@@]1(C)O", "GI50": "> 100", "TGI": "> 100 µM"}, {"smiles": "Oc1oc(C(=C2N=c3ccccc3=N2)c2ccc(Cl)cc2)c(O)c1-c1ccc(Cl)cc1", "TGI": "22.9 µM"}, {"smiles": "O=C(Nc1ncc(Cc2cccc(C(F)(F)F)c2)s1)c1ccc2c(c1)OCCO2", "GI50": 0.385, "TGI": "> 48.2 µM"}]}, {"test_system": "SN12C renal", "test": "growth of human tumour cells (NCI), 48 h", "units": {"GI50": "µM"}, "values": [{"smiles": "COc1cc2c(cc1OCCCN1CCN(CCCOc3cc4c(cc3OC)C(=O)N3CC(F)(F)C[C@H]3C=N4)CC1)N=C[C@@H]1CC(F)(F)CN1C2=O", "GI50": 4.05, "TGI": "19.5 µM"}, {"smiles": "COC(=O)C1=CN(CC2=CC(=O)C(C)=CC2=O)C=C(C(=O)OC)C1c1ccccc1OC", "GI50": 14.8, "TGI": "32.9 µM"}, {"smiles": "O/N=C1\\CCCCC1C(NO)c1ccccc1", "note": "(configuration not stated)", "TGI": "> 100 µM"}, {"smiles": "COC(=O)/C=C/c1cc(OC(C)=O)c2c(c1)C(C(=O)OC)C(c1ccc(OC(C)=O)c(OC(C)=O)c1)O2", "note": "(configuration not stated)", "GI50": 0.253, "TGI": "> 42.5 µM"}, {"smiles": "COc1cc(OC)c(OC)cc1/C=N/NC(=O)N/N=C/c1cc(OC)c(OC)cc1OC", "TGI": "> 100 µM"}, {"smiles": "O=C(O)c1ccc(CNCc2ccccc2)cc1", "TGI": "> 100 µM"}, {"smiles": "C=C(C)C(C1C=C(CCC(C=O)=C(C)C)C(=O)O1)C1(OC)C=C(C)C(=O)O1", "note": "(configuration not stated)", "GI50": "> 100", "TGI": "> 100 µM"}, {"smiles": "CCOC(=O)Nc1c(C)nc2ccccn12", "GI50": "> 100", "TGI": "> 100 µM"}, {"smiles": "Cc1cc2c(cc1C)[n+](=O)cc(C(=O)C/C(=N/NC(=S)NN)C(=O)Nc1cccc(C(F)(F)F)c1)n2[O-]", "TGI": "> 100 µM"}, {"smiles": "COCOCCC#CCO", "TGI": "> 100 µM"}, {"smiles": "O=[N+]([O-])c1ccccc1N=Nc1c(O)[nH]c2c(Cl)cc(Cl)cc12", "TGI": "> 100 µM"}, {"smiles": "NC(=S)N/N=C/c1ncccc1O", "GI50": 2.04, "TGI": "24.1 µM and 45.2 µM"}, {"smiles": "COC(=N)c1csc(C2OC(CO)C(O)C2O)n1", "note": "(configuration not stated)", "TGI": "> 100 µM"}, {"smiles": "O=C(CC(=O)Nc1ccccc1)NNC(Sc1ccccc1)c1cc(N=Nc2ccc(Br)cc2)ccc1O", "note": "(configuration not stated)", "TGI": "> 10 µM"}, {"smiles": "Cc1cc(C(=O)CSC(=S)SC(C)(C)C)ccc1Cl", "TGI": "43.6 µM"}, {"smiles": "C=CC12CCN(CC1)C(C(O)c1ccnc3ccc(OC)cc13)C2", "note": "(configuration not stated)", "GI50": "> 100", "TGI": "> 100 µM"}, {"smiles": "Nc1c(S(=O)(=O)c2ccc(Cl)cc2)c2nc3ccccc3nc2n2ccnc12", "TGI": "> 100 µM"}, {"smiles": "O=C(Nc1nc(-c2c[nH]c3ccccc23)cs1)c1n[nH]c(=O)c2ccccc12", "GI50": 10.8, "TGI": "> 100 µM"}, {"smiles": "CN(C)CCN1CCC(Cc2ccccc2)CC1", "GI50": "> 80", "TGI": "> 80 µM"}, {"smiles": "COc1cc2c3c(n(C)c(=O)c2cc1OC)-c1cc2c(cc1C3=O)OCO2", "TGI": "> 100 µM"}, {"smiles": "COc1ccc(/C=C\\c2cc(OC)c(OC)c(OC)c2)cc1OCC(=O)O", "TGI": "> 100 µM"}, {"smiles": "CO[C@@H]1CC[C@]2(C)OC[C@H](C)[C@@H]3C[C@@H](C)[C@@H](OC(C)=O)[C@@H]4[C@H]3[C@@H]2O[C@H]4C[C@@]1(C)O", "GI50": "> 100", "TGI": "> 100 µM"}, {"smiles": "Oc1oc(C(=C2N=c3ccccc3=N2)c2ccc(Cl)cc2)c(O)c1-c1ccc(Cl)cc1", "TGI": "> 100 µM"}, {"smiles": "O=C(Nc1ncc(Cc2cccc(C(F)(F)F)c2)s1)c1ccc2c(c1)OCCO2", "GI50": 0.592, "TGI": "> 100 µM"}]}]}
